# According to patent publication US11440970B2, “Nicotine-binding antibodies” (priority 2017, dated 2022):
# Read-outs that look alike come from different tables or passages of the source.
# Columns and labels:
# [1] = rats; cited from earlier work
# [2] = Non-GLP 4-week repeated high-dose toxicology study; type: in vivo; details: nicotine 1 mg/kg/day s.c. infusion for 28d; rats
# Experimental: 8D1-IgG4 was dosed i.v. once weekly at 200 mg/kg.
# Assessment of toxicity was based on mortality, clinical observations, and body weight during the course of the 28-day study, and at the end of study organ weights, gross anatomic pathology, hematology, serum clinical chemistry, and coagulation was performed. Histopathology of selected tissues (heart, liver, lung, kidney, spleen, skeletal muscle, brain, colon, stomach, ovary, and testis) is pending. Tissues were fixed immediately in formalin, and processed for embedding in paraffin, staining with H&E, and review by a veterinary pathologist.
# [3] = cited from earlier work
# [4] = mice; cited from earlier work
compound,measurement,setting,value
CN1CCC[C@H]1c1cccnc1 [nicotine],LD50,[1],50 mg/kg
same,hematology finding in animals that received nicotine,[2],slight polychromasia
same,lethal dose (may be as high as),[3]; human adult,1.0 to 7.1 mg/kg
same,lethal dose (may be as high as),[3]; in vivo,≥ 500 mg
same,LD50,[4],3 mg/kg
